Drawing on patent US11261186B2, “Biaryl derivative as GPR120 agonist” (LG CHEM, LTD., priority 2014, dated 2022), this text covers EC50 for 36 compounds.

The structures appear in SMILES notation. pEC50: −log10 of the molar value.

This test deals with T1, hGPR120 (Homo sapiens, UniProt Q5NUL3).
T1 construct: expressed in transfected cells; host or cells: CHO-K1
T1 sequence (Q5NUL3 1-361): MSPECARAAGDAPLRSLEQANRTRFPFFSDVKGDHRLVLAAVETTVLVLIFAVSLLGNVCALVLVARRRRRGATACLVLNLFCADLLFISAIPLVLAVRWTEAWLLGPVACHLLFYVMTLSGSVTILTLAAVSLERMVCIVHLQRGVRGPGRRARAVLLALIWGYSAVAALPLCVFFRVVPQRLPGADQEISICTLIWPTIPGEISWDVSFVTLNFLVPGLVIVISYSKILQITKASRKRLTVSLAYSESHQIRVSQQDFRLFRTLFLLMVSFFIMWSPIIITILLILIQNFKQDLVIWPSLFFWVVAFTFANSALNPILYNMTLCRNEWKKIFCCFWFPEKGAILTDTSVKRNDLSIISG
Nature of the test: Measurement of Activity of GPR120 Agonist (Cell-Based Assay), Calcium 5 dye fluorescence. The following applies: CHO-K1 cells expressing Ga16 and hGPR120. An outline of the steps:
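Gα16/hGPR120 CHO-K1; 18 h plating, 37 °C, 5% CO2; Calcium 5 dye load 1 h; agonist serial dilution, 0.5% DMSO final; fluor Ex485/Em525; response as % of 1% DMSO vehicle.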
As to `O=C(O)CC1CCN(c2c(F)cc(-c3cccc(C4CCCC4)n3)cc2F)CC1` [Example 317, 2-[1-[4-(6-cyclopentyl-2-pyridyl)-2,6-difluoro-phenyl]-4-piperidyl]acetic acid], the pEC50 was 5.70 to 6.70.

With `COC(c1cccc(-c2cc(F)c(N3CCC(CC(=O)O)CC3)c(F)c2)n1)C1CC1` (stereo not drawn) [Example 318, 2-[1-[4-[6-[cyclopropyl(methoxy)methyl]-2-pyridyl]-2,6-difluoro-phenyl]-4-piperidyl]acetic acid], the negative-log EC50 (pEC50) is 4.70 to 5.70.

`O=C(O)CC1CCN(c2c(F)cc(-c3cccc(OC4CCC4)n3)cc2Cl)CC1` [Example 319, 2-[1-[2-chloro-4-[6-(cyclobutoxy)-2-pyridyl]-6-fluoro-phenyl]-4-piperidyl]acetic acid]: the negative logarithm of the EC50 (pEC50) is 5.70 to 6.70.

`O=C(O)CC1CCN(c2ccc(-c3cccc(OC4CCC4)n3)cc2F)CC1` [Example 320, 2-[1-[4-[6-(cyclobutoxy)-2-pyridyl]-2-fluoro-phenyl]-4-piperidyl]acetic acid]: the negative logarithm of the EC50 (pEC50) was 5.70 to 6.70.

For `O=C(O)CC1CN(c2c(F)cc(-c3cccc(OC4CCC4)n3)cc2F)C1` [Example 321, 2-[1-[4-[6-(cyclobutoxy)-2-pyridyl]-2,6-difluoro-phenyl]azetidin-3-yl]acetic acid], the pEC50 is more than 6.70.

Turning to `O=C(O)CC1CN(c2c(F)cc(-c3cccc(OCC4CC4)n3)cc2F)C1` [Example 322, 2-[1-[4-[6-(cyclopropylmethoxy)-2-pyridyl]-2,6-difluoro-phenyl]azetidin-3-yl]acetic acid], the negative logarithm of the EC50 (pEC50) is more than 6.70.

Take `Cc1cc(OC2CCC2)nc(-c2cc(F)c(N3CCC(CC(=O)O)CC3)c(F)c2)n1` [Example 323, 2-[1-[4-[4-(cyclobutoxy)-6-methyl-pyrimidin-2-yl]-2,6-difluoro-phenyl]-4-piperidyl]acetic acid]: the negative-log EC50 (pEC50) was 5.70 to 6.70.

For the compound `CCCCOc1cccc(-c2cc(F)c(N3CCC(CC(=O)O)CC3)c(F)c2)n1` [Example 324, 2-[1-[4-(6-butoxy-2-pyridyl)-2,6-difluoro-phenyl]-4-piperidyl]acetic acid], the negative-log EC50 (pEC50) was 5.70 to 6.70.

For `Cc1cc(-c2cc(F)c(N3CCC(CC(=O)O)CC3)c(F)c2)nc(OC2CCC2)n1` [Example 325, 2-[1-[4-[2-(cyclobutoxy)-6-methyl-pyrimidin-4-yl]-2,6-difluoro-phenyl]-4-piperidyl]acetic acid], the pEC50 is 5.70 to 6.70.

For the compound `O=C(O)CC1CCN(c2c(F)cc(-c3csc(OC4CCC4)n3)cc2F)CC1` [Example 326, 2-[1-[4-[2-(cyclobutoxy)thiazol-4-yl]-2,6-difluoro-phenyl]-4-piperidyl]acetic acid], the negative logarithm of the EC50 (pEC50) was 5.70 to 6.70.

For the compound `Cc1cc(OC2CCC2)nc(-c2cc(F)c(N3CCC(CC(=O)O)CC3)c(F)c2)c1` [Example 327, 2-[1-[4-[6-(cyclobutoxy)-4-methyl-2-pyridyl]-2,6-difluoro-phenyl]-4-piperidyl]acetic acid], the pEC50 was 5.70 to 6.70.

For `Cc1cc(OC2CCC2)nc(-c2cc(F)c(N3CC(CC(=O)O)C3)c(F)c2)n1` [Example 328, 2-[1-[4-[4-(cyclobutoxy)-6-methyl-pyrimidin-2-yl]-2,6-difluoro-phenyl]azetidin-3-yl]acetic acid], the pEC50 is 5.70 to 6.70.

Consider `O=C(O)CC1CCN(c2c(F)cc(-c3cncc(OC4CCC4)n3)cc2F)CC1` [Example 329, 2-[1-[4-[6-(cyclobutoxy)pyrazin-2-yl]-2,6-difluoro-phenyl]-4-piperidyl]acetic acid], for which the negative logarithm of the EC50 (pEC50) was more than 6.70.

Consider `O=C(O)CC1CCN(c2c(F)cc(-c3nccc(OC4CCC4)n3)cc2F)CC1` [Example 330, 2-[1-[4-[4-(cyclobutoxy)pyrimidin-2-yl]-2,6-difluoro-phenyl]-4-piperidyl]acetic acid], for which the negative logarithm of the EC50 (pEC50) is more than 6.70.

In the case of `Cc1cc(OCC2CC2)nc(-c2cc(F)c(N3CCC(CC(=O)O)CC3)c(F)c2)n1` [Example 331, 2-[1-[4-[4-(cyclopropylmethoxy)-6-methyl-pyrimidin-2-yl]-2,6-difluoro-phenyl]-4-piperidyl]acetic acid], the pEC50 is 5.70 to 6.70.

As to `O=C(O)CC1CCN(c2c(F)cc(-c3nccc(OCC4CC4)n3)cc2F)CC1` [Example 332, 2-[1-[4-[4-(cyclopropylmethoxy)pyrimidin-2-yl]-2,6-difluoro-phenyl]-4-piperidyl]acetic acid], the pEC50 was more than 6.70.

In the case of `O=C(O)CC1CCN(c2c(F)cc(-c3cncc(OCC4CC4)n3)cc2F)CC1` [Example 333, 2-[1-[4-[6-(cyclopropylmethoxy)pyrazin-2-yl]-2,6-difluoro-phenyl]-4-piperidyl]acetic acid], the pEC50 was more than 6.70.

For `O=C(O)CC1CN(c2c(F)cc(-c3cncc(OC4CCC4)n3)cc2F)C1` [Example 334, 2-[1-[4-[6-(cyclobutoxy)pyrazin-2-yl]-2,6-difluoro-phenyl]azetidin-3-yl]acetic acid], the pEC50 is more than 6.70.

Regarding `O=C(O)CC1CN(c2c(F)cc(-c3cncc(OCC4CC4)n3)cc2F)C1` [Example 335, 2-[1-[4-[6-(cyclopropylmethoxy)pyrazin-2-yl]-2,6-difluoro-phenyl]azetidin-3-yl]acetic acid], the pEC50 was more than 6.70.

Turning to `O=C(O)CC1CN(c2c(F)cc(-c3nccc(OCC4CC4)n3)cc2F)C1` [Example 337, 2-[1-[4-[4-(cyclopropylmethoxy)pyrimidin-2-yl]-2,6-difluoro-phenyl]azetidin-3-yl]acetic acid], the pEC50 is more than 6.70.

As to `CCOc1cncc(-c2cc(F)c(N3CCC(CC(=O)O)CC3)c(F)c2)n1` [Example 338, 2-[1-[4-(6-ethoxypyrazin-2-yl)-2,6-difluoro-phenyl]-4-piperidyl]acetic acid], the negative-log EC50 (pEC50) was more than 6.70.

Turning to `CC(C)Oc1cncc(-c2cc(F)c(N3CCC(CC(=O)O)CC3)c(F)c2)n1` [Example 339, 2-[1-[2,6-difluoro-4-(6-isopropoxypyrazin-2-yl)phenyl]-4-piperidyl]acetic acid], the pEC50 is more than 6.70.

Turning to `COc1cncc(-c2cc(F)c(N3CCC(CC(=O)O)CC3)c(F)c2)n1` [Example 340, 2-[1-[2,6-difluoro-4-(6-methoxypyrazin-2-yl)phenyl]-4-piperidyl]acetic acid], the pEC50 is 5.70 to 6.70.

As to `CCCOc1cncc(-c2cc(F)c(N3CCC(CC(=O)O)CC3)c(F)c2)n1` [Example 341, 2-[1-[2,6-difluoro-4-(6-propoxypyrazin-2-yl)phenyl]-4-piperidyl]acetic acid], the pEC50 was more than 6.70.

For the compound `CC(C)COc1cncc(-c2cc(F)c(N3CCC(CC(=O)O)CC3)c(F)c2)n1` [Example 342, 2-[1-[2,6-difluoro-4-(6-isobutoxypyrazin-2-yl)phenyl]-4-piperidyl]acetic acid], the negative logarithm of the EC50 (pEC50) is more than 6.70.

Take `CCCCOc1cncc(-c2cc(F)c(N3CCC(CC(=O)O)CC3)c(F)c2)n1` [Example 343, 2-[1-[4-(6-butoxypyrazin-2-yl)-2,6-difluoro-phenyl]-4-piperidyl]acetic acid]: the pEC50 is more than 6.70.

As to `O=C(O)CC1CCN(c2c(F)cc(-c3cncc(OC4CCCC4)n3)cc2F)CC1` [Example 344, 2-[1-[4-[6-(cyclopentoxy)pyrazin-2-yl]-2,6-difluoro-phenyl]-4-piperidyl]acetic acid], the pEC50 was more than 6.70.

Regarding `CCOc1ccnc(-c2cc(F)c(N3CCC(CC(=O)O)CC3)c(F)c2)n1` [Example 345, 2-[1-[4-(4-ethoxypyrimidin-2-yl)-2,6-difluoro-phenyl]-4-piperidyl]acetic acid], the pEC50 is more than 6.70.

Regarding `CC(C)Oc1ccnc(-c2cc(F)c(N3CCC(CC(=O)O)CC3)c(F)c2)n1` [Example 346, 2-[1-[2,6-difluoro-4-(4-isopropoxypyrimidin-2-yl)phenyl]-4-piperidyl]acetic acid], the pEC50 is more than 6.70.

With `CCCOc1ccnc(-c2cc(F)c(N3CCC(CC(=O)O)CC3)c(F)c2)n1` [Example 347, 2-[1-[2,6-difluoro-4-(4-propoxypyrimidin-2-yl)phenyl]-4-piperidyl]acetic acid], the pEC50 was more than 6.70.

As to `CC(C)COc1ccnc(-c2cc(F)c(N3CCC(CC(=O)O)CC3)c(F)c2)n1` [Example 348, 2-[1-[2,6-difluoro-4-(4-isobutoxypyrimidin-2-yl)phenyl]-4-piperidyl]acetic acid], the negative logarithm of the EC50 (pEC50) is more than 6.70.

`CCOc1cc(C)nc(-c2cc(F)c(N3CCC(CC(=O)O)CC3)c(F)c2)n1` [Example 349, 2-[1-[4-(4-ethoxy-6-methyl-pyrimidin-2-yl)-2,6-difluoro-phenyl]-4-piperidyl]acetic acid]: the negative-log EC50 (pEC50) is more than 6.70.

As for `Cc1cc(OC(C)C)nc(-c2cc(F)c(N3CCC(CC(=O)O)CC3)c(F)c2)n1` [Example 350, 2-[1-[2,6-difluoro-4-(4-isopropoxy-6-methyl-pyrimidin-2-yl)phenyl]-4-piperidyl]acetic acid], the pEC50 was 5.70 to 6.70.

For the compound `CCCOc1cc(C)nc(-c2cc(F)c(N3CCC(CC(=O)O)CC3)c(F)c2)n1` [Example 351, 2-[1-[2,6-difluoro-4-(4-methyl-6-propoxy-pyrimidin-2-yl)phenyl]-4-piperidyl]acetic acid], the pEC50 is more than 6.70.

Turning to `Cc1cc(OCC(C)C)nc(-c2cc(F)c(N3CCC(CC(=O)O)CC3)c(F)c2)n1` [Example 352, 2-[1-[2,6-difluoro-4-(4-isobutoxy-6-methyl-pyrimidin-2-yl)phenyl]-4-piperidyl]acetic acid], the negative logarithm of the EC50 (pEC50) is 5.70 to 6.70.

For `O=C(O)CC1CCN(c2c(F)cc(-c3cncc(N4CCCC4)n3)cc2F)CC1` [Example 353, 2-[1-[2,6-difluoro-4-(6-pyrrolidin-1-ylpyrazin-2-yl)phenyl]-4-piperidyl]acetic acid], the negative-log EC50 (pEC50) was 4.70 to 5.70.
